The source of these data is patent US20220142995A1, “DUAL ATM AND DNA-PK INHIBITORS FOR USE IN ANTI-TUMOR THERAPY” (XRAD Therapeutics, Inc., priority 2019, published 2022).

For series [1], the system named is pKAP1/KAP1 in FADU tumors. The series can be described thus: Pharmacodynamic assay, pKAP1/KAP1 in FADU tumors. To be noted: for pKAP1/KAP1: FADU tumors. It is filed as in vivo, mice. The text has this: (§1) Tumor Studies. Female NCr nu/nu mice (Crl:NU(NCr)-Foxn1 nu, Strain 490) were obtained from Charles River at 5-6 weeks of age. All animal procedures used in these studies were approved by the Institutional Animal Care and Use Committee (IACUC) at Duke University.
(§2) FADU or MDA-MB-231 cells were harvested during log phase growth for in vivo implantation. The resuspended cells were washed three times in phosphate buffered saline (PBS) before preparing the working dilution in PBS. FADU cells were diluted to 1×10^7 cells/mL and MDA-MB-231 cells were diluted to 5×10^7 cells/mL. Each mouse was injected subcutaneously in the right flank with 100 μL of the cellular suspension. Tumor growth was monitored until the tumors reached a target volume of at least 100 mm^3, at which point mice were randomly stratified into four treatment groups.
(§3) The vehicle used in this study was 0.5% (Hydroxypropyl)methyl cellulose (HPMC) and 0.2% Tween80 dissolved in deionized water. The pH of the vehicle was adjusted to 7.0-8.0 and the vehicle was stored at 4° C. On each day of in vivo treatment an appropriate mass of test compound was added to the vehicle at room temperature. The mixture was vortexed as necessary to generate a final concentration of 1.6 mg/mL.
(§4) Pharmacodynamic (PD) assays. Tumor studies were performed as follows. Mice bearing FADU or MDA-231 tumors were pre-dosed with vehicle alone or compound 569 alone at 3, 6, and 10 mg/kg. Tumors were then irradiated with 10 Gy 45 min after vehicle or compound 569 administration or left unirradiated (vehicle and compound 569 at 10 mg/kg). Tumors were harvested 1 h post radiation.
(§5) Tissue homogenates for pharmacodynamic analyses were collected and processed as follows. Tumor tissues from FADU or MDA-MB-231 tumors were flash frozen in liquid nitrogen and pulverized on dry ice using a tissue pulverizer. A portion of the tumor powder was transferred into a microtube, followed by addition of 500 μL of RIPA buffer [[…], pH 8.0, 150 mM NaCl, 0.1% SDS, 0.5% sodium deoxycholate, 1% IGEPAL® CA-630 (Sigma, 18896)]. To 10 ml of RIPA buffer, 2 tablets each of Protease inhibitor and Phosphatase inhibitor (Roche, #04693159001 & #04906837001), 200 μL of 0.1 M PMSF and 160 μL of Aprotinin, (Sigma, A6279) were added. The suspension was homogenized on ice with a pellet pestle motor (KONTES) and incubated on ice for 30 minutes. Cell lysates were centrifuged at 13,200 rpm for 15 min at 4° C. and supernatants were transferred to a new tube and analyzed for protein concentration with a BCA kit (Pierce, 23227), followed by immunoblotting.

For a further series, the system named is MCF7 cells. The series can be described thus: Clonogenic survival assay in MCF7 cells with or without radiation. It is filed as cell-based, human. To be noted: for Fold 2 Gy / Fold 4 Gy: relative to DMSO. On the procedure: Cell Culture. The MCF-7 human breast carcinoma cell line and HCT116 p53 wild-type and HCT116 p53−/− cell lines were obtained from ATCC. MCF7 and HCT116 cells were cultured in Dulbecco's modified Eagle's medium (DMEM (Gibco #11995-065). MDA-MB-231 human triple negative breast cancer cell line and FADU, human head and neck squamous cell carcinoma line, were obtained from Charles River Laboratories (Morrisville, N.C.). MDA-MB-231 cells were cultured in RPMI 1640 medium (Gibco, 11875-093). FADU cells were cultured in Minimum Essential Medium a (MEM a) (Gibco, 12571-063) supplemented with 1 mM Sodium Pyruvate (Gibco, 11360-070), 1×MEM Non-Essential Amino Acids (Gibco, 11140-050). All cell lines were supplemented with 10% fetal bovine serum (FBS) (Corning, 35-010-CV) and 1× Anti biotic-Anti mycotic (Gibco #15240-062) and were grown at […]. All cell lines were authenticated by short tandem repeat profiling and tested negative for mycoplasma.
Clonogenic survival assay. This assay was performed with compound 569. Cells were plated in 6-well plates at different densities: 250 cells for no IR control, 5000 cells for 2 Gy of IR and 10000 cells for 4 Gy of IR and cultured overnight. The next day, cells were preincubated with compound 569 at 100, 250, 500, or 1000 nM or DMSO for 30 min before being exposed to increasing doses of IR (0, 2, or 4 Gy). After IR, cells were continuously incubated with DMSO or compound 569 for 5 h before the culture medium was removed and cells were washed with PBS. Cells were cultured in complete medium in the absence of inhibitor for 9 days. Then cells were stained (PBS, 0.0037% v/v formaldehyde, 0,1% crystal violet) rinsed with water and dried.

Series [2] has as its system pDNA-PK/DNA-PK in FADU tumors. The series can be described thus: Pharmacodynamic assay, pDNA-PK/DNA-PK in FADU tumors. It counts as in vivo, mice. To be noted: for pDNA-PK/DNA-PK: FADU tumors.
Description: as §1, §2, §3, §4, §5

[3] abbreviates: 10 Gy, 3 mg/kg oral, harvested 1 h post radiation.
Setting [4] is: 10 Gy, 6 mg/kg oral, harvested 1 h post radiation.
The mark [5] stands for this setting: 10 Gy, 10 mg/kg oral, harvested 1 h post radiation.

Consider `CC(C)NCCOc1ncc(-c2cc3c4c(cnc3cc2F)N(C)C(=O)C42CCC2)cc1NS(C)(=O)=O` [Compound 569, N-(5-(7′-Fluoro-3′-methyl-2′-oxo-2′,3′-dihydrospiro[cyclobutane-1,1′-pyrrolo[2,3-c]quinolin]-8′-yl)-2-(2-(isopropylamino)ethoxy)pyridin-3-yl)methanesulfonamide], for which the pKAP1/KAP1 worked out at 0.0903 in series [1] (setting [3]); 0.0982 in series [1] (setting [4]); 0.156 in series [1] (setting [5]); 0.00595 in series [1] (no radiation, 10 mg/kg oral). Also, the inhibition at 10 mg/kg in series [1] (Mus musculus, FADU and MDA231 tumors (FIGS. 4 and 5, Tables 2-5), 10 Gy, 10 mg/kg, read-out: inhibition of tumor levels of radiation-induced phosphorylation of KAP1) is over 80%; in series [2] (Mus musculus, FADU and MDA231 tumors (FIGS. 4 and 5, Tables 2-5), 10 Gy, 10 mg/kg, read-out: inhibition of tumor levels of radiation-induced autophosphorylation of DNA-PK), about 55%. In addition, the “Fold 2 Gy” value with MCF7 cells (100 nM) is recorded as 7.5; in the series with MCF7 cells (250 nM), 10.8; with MCF7 cells (500 nM), 14.7; with MCF7 cells (1000 nM) it was 22.0. Also, the “Fold 4 Gy” value in the series with MCF7 cells (100 nM) came to 21.8; in the series on MCF7 cells (250 nM), 54.0; in the series with MCF7 cells (500 nM), 91.5; in the series with MCF7 cells (1000 nM), 198. Also, the radiosensitization entry in the series on MCF7 cells (5-h exposure, 100-1000 nM, IR 0, 2, 4 Gy) is “significant degree of radiosensitization”. Further, the “cellular toxicity in the absence of IR” value in the series on MCF7 cells (5-h exposure, 100-1000 nM, no IR) is “without evidence of cellular toxicity”. Besides, the “inhibition of radiation-induced DNA-PK autophosphorylation and KAP1 phosphorylation in tumors” value in series [2] (FADU and MDA231 tumors, 10 Gy, 3, 6 and 10 mg/kg oral) is “dose-dependent inhibition”. For the same compound, the pDNA-PK/DNA-PK turned out to be 0.938 in series [2] (setting [3]); 0.658 in series [2] (setting [4]); 0.476 in series [2] (setting [5]); 0.343 in series [2] (no radiation, 10 mg/kg oral). For the same compound, the “basal phosphorylation of DNA-PK in tumors” value in series [2] (unirradiated tumors, 10 mg/kg) is listed as “inhibited”.
